Columns and labels:
breast cancer 4T1 cells = assay: Tumor weight and tumor inhibition in BALB/c mice bearing breast cancer 4T1 cells; details: for Tumor inhibition rate / Tumor weight (x ± s) / Tumor weight (g) (x ± s): intratumoral 150 μl/mouse every 3 days x3, 5th day;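 as to all read-outs here: subcutaneous grafts in the right axilla, tumors excised and weighed after euthanasia, inhibition rate derived from group mean tumor weight versus the negative control group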
Description: In the following examples, unless otherwise specified, animal tests of subcutaneous transplantation tumors were performed in accordance with test guidelines issued by a drug administration authority. […] The subcutaneous transplantation was carried out according to a conventional method for subcutaneous inoculation of tumor cells. […] Items to be observed, measured and analyzed in the experiments included general status, body weight, food intake, tumor volume, tumor weight, thymus weight, spleen weight, and the like.
The tumor growth inhibition rate (abbreviated as tumor inhibition rate in the present invention) is calculated through the following equation:
wherein TW is an average tumor weight of a study group; CW is an average tumor weight of a negative control group.
The effects of the co-use of drugs (including efficacy and safety) can theoretically be based on the judgment of q:
q=actual combined effect/theoretical expected effect of simple addition.
When q=1, the actual combined effect meets the theoretical expectation, showing an additive effect; when q<1, the actual combined effect is weaker than the theoretical expectation, showing an antagonistic effect; and when q>1, the actual combined effect exceeds the theoretical expectation, showing a synergic effect. Unless otherwise specified, single-use efficacy of A or B (denoted as EA and EB respectively) and the actual combined efficacy of A/B (denoted as EA+B) are both tumor inhibition rates.
In one experiment, the test animal was a BALB/c mouse, the modeling cells were breast cancer 4T1 cells, and the transplantation tumor was modeled at 1×10^6 cells/mouse under the skin of the animal's right axilla. […] The experimental groups were divided into 1 negative control group (group 0) and 13 study groups (groups 1-13). They were all injected intratumorally. […] Each group was administered once every 3 days for a total of 3 times, each time at an injection dose of 150 μl//mouse. During the administration, general state of the animals and the degree of necrosis of normal tissues around the tumor after the administration were observed. On the 5th day after the administration was ended, the animals were euthanized, and the tumor weight was measured after anatomy to the animals. The tumor inhibition rate was calculated from the negative control group of each administration mode.
In another experiment, the test animal was a BALB/c mouse, the modeling cells were breast cancer 4T1 cells, and the transplantation tumor was modeled at 1×10^6 cells/mouse under the skin of the animal's right axilla. […] Each group was administered by intratumoral injection once every 3 days for a total of 3 times, each time at an injection dose of 150 μl/mouse. On the 5th day after the administration was ended, the animals were euthanized, and the tumor weight was measured after anatomy to the animals. The tumor inhibition rate was calculated from the negative control group.
In another experiment, the test animal was BALB/c mice, the modeling cells were breast cancer 4T1 cells, and the transplantation tumor was modeled at 1×10^6 cells/mouse under the skin of the animal's right axilla. […] Each group was administered by intratumoral injection once every 3 days for a total of 3 times, each time at an injection dose of 150 μl/mouse. On the 5th day after the administration was ended, the animals were euthanized, and the tumor weight was measured after anatomy to the animals. The tumor inhibition rate was calculated from the negative control group.
In another experiment, the test animal was a BALB/c mouse, the modeling cells were breast cancer 4T1 cells, and the transplantation tumor under the skin of the animal's right axilla was modeled at 1×10^6 cells/mouse.

[1] = pH of the drug composition; type: physicochemical; details: aqueous solution
[2] = Saturated concentration of 5-fluorouracil; type: physicochemical; details: aqueous solution
[3] = Table 15, avg tumor volume 316 mm^3
[4] = Table 10, avg tumor volume 336 mm^3, 150 μl/mouse every 3 days x3, 5th day after last dose
[5] = Table 13, avg tumor volume 307 mm^3

Row | SMILES | Tumor inhibition rate (breast cancer 4T1 cells; [3]) | Tumor weight (x ± s) (breast cancer 4T1 cells; [3]) | Drug pH ([1]; Table 15) | Tumor inhibition rate (breast cancer 4T1 cells; [5]) | Tumor weight (g) (x ± s) (breast cancer 4T1 cells; [5]) | Drug pH ([1]; Table 13) | also measured
1 | CC(=O)O [15% acetic acid, acetic acid] | 68% | 0.70 ± 0.18 g | 2.5 | – | – | – | –
2 | N=C(N)NCCC[C@H](N)C(=O)O [15% arginine, L-arginine] | – | – | – | 23% | 1.74 ± 0.28 g | 11.0 | Intratumoral injection Tumor inhibition rate (breast cancer 4T1 cells; [4]): 28%; Intratumoral injection Tumor weight (breast cancer 4T1 cells; [4]): 0.92 ± 0.26 g
3 | O=C([O-])[O-].[Na+].[Na+] [14% sodium carbonate, sodium carbonate] | – | – | – | 35% | 1.47 ± 0.24 g | 10.8 | –
4 | O=C([O-])O.[Na+] [2% sodium bicarbonate, sodium bicarbonate] | – | – | – | 7% | 2.10 ± 0.25 g | 6.9 | –
5 | NCC(=O)O [15% glycine, Glycine] | 17% | 1.81 ± 0.26 g | 6.8 | – | – | – | –
6 | O=C([O-])O.[Na+] [4% sodium bicarbonate, sodium bicarbonate] | 23% | 1.68 ± 0.27 g | 6.9 | – | – | – | –
7 | O=C([O-])[O-].[Na+].[Na+] [7% sodium carbonate, sodium carbonate] | – | – | – | 20% | 1.81 ± 0.21 g | 10.8 | –
8 | O=c1[nH]cc(F)c(=O)[nH]1 [5-fluorouracil] | – | – | – | – | – | – | saturated concentration (Canti) [2]: about 1.5%
